Key:
[1] = human volunteers; cited from earlier work
[2] = system: ostiomeatal complex; assay: Case study 6: WS-12 nebulization for dry mouth of obstructed breathing; type: in vivo, human
Text: As hypersecretion of mucus was not the principal event, it was decided that a long-acting p-menthanecarboxamide, WS-12, might work well for the dry mouth. WS-12 was first discovered by the applicant to be a potent TRPM8 receptor agonist (Reynolds and Polakis, U.S. Pat. No. 7,893,072), and they supplied this reagent for testing and publications [see Bödding et al. (Cell Calcium. 42:618-28, 2007), and Sherkheli (J. Pharm. Pharmaceu. Sci. 13:242-53, 2010)]. WS-12 has weak cooling effects on the skin. WS-12 was later approved as a food additive (FEMA) for comestibles such as chewing gum. WS-12 is available online for about $USD 15 per 100 g. WS-12 was prepared at 10 mg/ml in 1% ethanol and 2% polysorbate 80 suspensions for a 5-see nebulization using the NasoNeb® apparatus in a volunteer subject and administered once before sleep.
The subject now uses the WS-12 on an occasional as-needed basis. The nasal polyps are still present upon endoscopic examination. The WS-12 chemical structure is ideal for use in obstructed breathing because it has an aryl moiety that increases lipophilicity (higher octanol-water partition coefficient). Lipophilicity increases retention in the nasal mucosa; thus, its action is long-lasting. […] Its actions are more gentle, with a mild coolness on the nasal surfaces. […]

[3] = see Table 8, Wei U.S. Pat. No. 8,258,320; cited from earlier work
[4] = target: T1, hTRPM8 channel (Homo sapiens, UniProt Q7Z2W7); assay: TRPM8 receptor assay, calcium entry (Fluo-8, FLIPR) in transfected CHO cells; type: cell-based; conditions: FIG. 5
T1 construct: host or cells: CHO cells
T1 sequence (Q7Z2W7 whole entry): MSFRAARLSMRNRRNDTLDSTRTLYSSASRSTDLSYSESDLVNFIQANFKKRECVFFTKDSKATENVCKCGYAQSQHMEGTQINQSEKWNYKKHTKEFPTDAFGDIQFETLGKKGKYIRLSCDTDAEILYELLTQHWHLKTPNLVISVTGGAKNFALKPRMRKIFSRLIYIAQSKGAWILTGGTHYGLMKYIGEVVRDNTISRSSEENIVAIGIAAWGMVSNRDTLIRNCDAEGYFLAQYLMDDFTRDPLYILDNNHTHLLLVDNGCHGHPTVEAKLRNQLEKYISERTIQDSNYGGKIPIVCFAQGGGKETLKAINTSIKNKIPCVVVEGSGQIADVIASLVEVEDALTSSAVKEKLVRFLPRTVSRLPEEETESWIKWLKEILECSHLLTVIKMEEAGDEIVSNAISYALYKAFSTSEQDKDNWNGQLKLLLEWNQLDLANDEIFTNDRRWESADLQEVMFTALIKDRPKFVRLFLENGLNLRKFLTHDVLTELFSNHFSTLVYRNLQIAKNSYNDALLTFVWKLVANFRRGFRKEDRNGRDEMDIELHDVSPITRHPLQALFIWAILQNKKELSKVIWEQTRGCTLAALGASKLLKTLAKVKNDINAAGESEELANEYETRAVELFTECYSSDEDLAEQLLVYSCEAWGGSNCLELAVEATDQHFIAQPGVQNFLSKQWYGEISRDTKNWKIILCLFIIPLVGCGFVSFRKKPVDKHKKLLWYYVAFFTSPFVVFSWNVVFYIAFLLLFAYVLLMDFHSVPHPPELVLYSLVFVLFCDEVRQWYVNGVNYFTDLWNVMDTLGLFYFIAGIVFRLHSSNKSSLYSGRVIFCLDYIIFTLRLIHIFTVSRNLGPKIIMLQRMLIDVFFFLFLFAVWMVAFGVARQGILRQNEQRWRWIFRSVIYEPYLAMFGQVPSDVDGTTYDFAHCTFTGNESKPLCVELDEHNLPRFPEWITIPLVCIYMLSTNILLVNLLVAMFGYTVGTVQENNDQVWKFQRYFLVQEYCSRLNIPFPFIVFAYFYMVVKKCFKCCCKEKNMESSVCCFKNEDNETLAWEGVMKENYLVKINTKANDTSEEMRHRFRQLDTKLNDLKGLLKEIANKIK
Text: FIG. 4. Agonist activities of TRPM8 analogs. […] The relative fluorescence (RF) unit on the ordinate represents calcium entry into transfected cells. […] The structures of these compounds are in Table 4.
The applicant has synthesized and examined a series of p-menthanecarboxamides conjugated to amino acid esters. […] This class of molecules is called N-alkylcarbonyl-amino acid esters. GlyOiPr is a p-menthanecarboxamide conjugate of glycine isopropyl (iPr) ester. It is similar in structure to WS-5, a cooling agent used as a food additive. WS-5 is the p-menthane-glycine ethyl (Et) ester, or GlyOEt. […] These in vitro effects were measured in CHO cells transfected with the hTRPM8 channel. Receptor activity was quantified using a Fluo-8 calcium kit and a Fluorescence Imaging Plate Reader ([…]™).

[5] = system: nasal cavity; assay: Nebulizer screening of TRPM8 agonists for sensations in the nasal cavity; type: in vivo, human; conditions: NasoNeb nebulizer
Description: Formulations for nebulization with NasoNeb® used a standard recipe of (Table 8): 1% of the active ingredient (1 to 10 mg/mL), 2% Tween 80 (Polysorbate 80), 1 to 5% ethanol, and made up to 100% with water. The mixture is centrifuged in a FlackTek, Inc., Speedmixer for at least 10 min at 3000 rpm. The Speedmixer spins the sample in 3 dimensions. The result is a white homogeneous liquid suspension with some of the solids now dissolved. For dosing, ˜2 to 3 mL is loaded into the canister of the nebulizer. The nebulizer nozzle tip is placed in the nostril and activated by pressing a button for 3 to 5 sec using a clock timer. […] For D-Ala-OiPr a 5-sec activation will deliver 2*0.73 mL*2 mg/ml, or a total dose of 3 mg per nose. The nasal cavity is relatively tolerant to exogenous agents with irritant properties, as many rinses are used for rhinitis and sinusitis. For some p-menthanecarboxamide analogs, a 2% (20 mg/mL) solution is possible and contemplated. An ideal agent reproduces a comfortable cooling or sensations of negative heat flux in the nasal cavity. […] Heat flux refers to the rate of heat transfer per unit area. The sinonasal cavity mucosa differs from philtrum skin and ocular margins in histology, so the choice of the right molecule must be made by experiment. The TRPM8 agonists were chosen for screening using a nebulizer for delivery. The NasoNeb system is powerful and effective for the OMC (FIG. 3). The delivery time per nostril in three to five seconds. […] These parameters were estimated in the initial trials: • Onset and offset of cooling sensations in the nasal cavity. • The intensity and quality of the cooling sensations in the nasal cavity. • Presence of effects such as sneezing or cough after dosing. • Degree of nasal stuffiness on a scale of 0 to 5. • Degree of rhinorrhea and phlegm in nasal secretions. • Questions regarding comfort and sleep at night.

[6] = target: T2, TRPA1 (Homo sapiens, UniProt O75762); conditions: Karashima et al., 2007; cited from earlier work
T2 construct: expressed in transfected cells
T2 sequence (O75762 whole entry, species assumed): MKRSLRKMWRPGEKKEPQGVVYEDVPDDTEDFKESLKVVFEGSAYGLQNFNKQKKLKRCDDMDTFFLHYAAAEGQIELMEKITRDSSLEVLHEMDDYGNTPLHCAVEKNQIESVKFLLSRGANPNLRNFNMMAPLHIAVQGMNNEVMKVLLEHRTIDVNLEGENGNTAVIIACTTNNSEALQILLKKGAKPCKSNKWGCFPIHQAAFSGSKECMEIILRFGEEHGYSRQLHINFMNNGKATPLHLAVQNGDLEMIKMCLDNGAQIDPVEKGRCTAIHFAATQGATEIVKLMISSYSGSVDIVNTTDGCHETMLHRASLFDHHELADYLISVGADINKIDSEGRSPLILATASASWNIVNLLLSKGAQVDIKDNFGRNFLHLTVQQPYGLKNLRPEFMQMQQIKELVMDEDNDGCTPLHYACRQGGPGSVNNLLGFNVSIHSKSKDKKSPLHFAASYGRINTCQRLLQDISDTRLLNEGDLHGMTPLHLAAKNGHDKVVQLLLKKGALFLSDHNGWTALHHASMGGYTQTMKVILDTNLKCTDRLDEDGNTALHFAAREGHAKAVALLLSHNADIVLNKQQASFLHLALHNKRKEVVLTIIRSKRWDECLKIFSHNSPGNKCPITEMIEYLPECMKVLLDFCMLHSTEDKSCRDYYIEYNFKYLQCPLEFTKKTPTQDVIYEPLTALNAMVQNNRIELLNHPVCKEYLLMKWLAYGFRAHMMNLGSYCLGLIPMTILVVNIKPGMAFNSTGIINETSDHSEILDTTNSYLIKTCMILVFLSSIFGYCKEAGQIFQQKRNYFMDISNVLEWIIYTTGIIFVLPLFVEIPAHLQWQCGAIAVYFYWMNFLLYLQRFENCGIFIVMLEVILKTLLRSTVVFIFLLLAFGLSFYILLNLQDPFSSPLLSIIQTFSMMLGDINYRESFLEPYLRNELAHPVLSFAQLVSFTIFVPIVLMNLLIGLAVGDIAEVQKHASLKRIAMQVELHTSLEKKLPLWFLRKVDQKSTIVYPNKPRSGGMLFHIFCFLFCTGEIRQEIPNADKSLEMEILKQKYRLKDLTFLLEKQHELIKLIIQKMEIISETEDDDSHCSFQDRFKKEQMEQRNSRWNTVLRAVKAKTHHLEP

[7] = system: goblet cells of human nasal epithelium; conditions: Liu et al., 2017; cited from earlier work

SMILES: COc1ccc2c(c1)n(CCN)c(=O)n2C(=O)[C@@H]1C[C@H](C)CC[C@H]1C(C)C.Cl [D-2363]
- Troponin plasma levels [1]: elevated troponin plasma levels

SMILES: COc1ccc(NC(=O)[C@@H]2C[C@H](C)CC[C@H]2C(C)C)cc1 [WS-12, (1R,2S,5R)-2-isopropyl-N-(4-methoxyphenyl)-5-methyl-cyclohexanecarboxamide]
- Effect on dry mouth symptoms ([2]; WS-12 10 mg/ml in 1% ethanol and 2% polysorbate 80, 5-sec nebulization once before sleep): dry mouth symptoms disappeared after three days of use
- Effect with manual spraying ([2]; manual sprayer instead of electronically powered nebulizer): does not work well
- Octanol/water partition coefficient among the p-menthanecarboxamides [3]: highest

SMILES: CC(C)[C@@H]1CC[C@@H](C)C[C@H]1O [l-menthol, (1R,2S,5R)-2-isopropyl-5-methyl-cyclohexanol [(−)-menthol], reference compound]
- Activity on TRPM8 transfected cells [4]: active
- Cooling duration in the nasal cavity [5]: ~7 min
- Sensory effects after delivery into the nasal cavity ([5]; 3 to 5 sec per nostril): Strong cool, clear breathing. Eye irritant, causes rhinorrehea
- Potency on TRPA1 compared with TRPM8 [6]: interacts with TRPA1 at a greater potency than TRPM8
- MUC5AC secretion [7]: stimulates MUC5AC
